The text below walks through data of PubChem BioAssay (NCI).

Each structure is given as a SMILES string.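 All cell lines were grown in 96-well plates and treated with compound for 48 hours. The concentration for 50% growth inhibition is given as GI50. At the TGI there is no net growth.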

Among the test systems are A498 renal; ACHN renal; HCC-2998 colon; HCT-116 colon; K-562 leukemia; M14 melanoma; RPMI-8226 leukemia; SK-MEL-2 melanoma; UO-31 renal.
What all share (assay): NCI-60 cell line screen, 48 h

`Cc1c(C(=O)C/C(=N/NC(=O)C[N+](C)(C)C)C(=O)Nc2ccc(Cl)cc2)[n+](=O)c2ccccc2n1O`: the TGI with A498 renal, in the assay on ACHN renal, in the assay with HCC-2998 colon, with HCT-116 colon, with K-562 leukemia and in the assay with M14 melanoma was more than 100 µM each time. In addition, the TGI with RPMI-8226 leukemia, with SK-MEL-2 melanoma and in the assay with UO-31 renal was more than 100 µM each time.
For the compound `CN(C)CCNC(=O)c1cccc2ccc(-c3ccncc3)nc12`, the TGI amounted to 4.34 µM in the assay with A498 renal; 10.2 µM with HCC-2998 colon; 4.71 µM in the assay with HCT-116 colon; 9.56 µM in the assay on K-562 leukemia; 16.1 µM with M14 melanoma; 13.3 µM in the assay with SK-MEL-2 melanoma. Besides, the TGI in the assay on UO-31 renal was 5.37 µM.
Consider `Cc1ccc(NC(=O)CC(=O)n2nc(C)c(N=Nc3ccccc3C(=O)O)c2C)cc1`, for which the TGI with A498 renal, in the assay on HCC-2998 colon, in the assay with HCT-116 colon, in the assay on K-562 leukemia, in the assay on M14 melanoma and in the assay with RPMI-8226 leukemia was more than 100 µM each time. Besides, the TGI in the assay with SK-MEL-2 melanoma and in the assay with UO-31 renal was more than 100 µM each time.
In the case of `CCCC1N2CCCCC2[C@@H]2c3[nH]c4ccccc4c3CCN12` (stereo partly drawn), the TGI in the assay on A498 renal, in the assay on ACHN renal, in the assay with HCC-2998 colon, in the assay with HCT-116 colon, in the assay on K-562 leukemia and in the assay with M14 melanoma was more than 100 µM in each case. Moreover, the TGI with RPMI-8226 leukemia, in the assay with SK-MEL-2 melanoma and in the assay on UO-31 renal was more than 100 µM in each case.
For `O=C(O)C(CS)Nc1c2ccccc2nc2ccccc12` (stereo not drawn), the TGI with ACHN renal, with HCC-2998 colon, in the assay on K-562 leukemia, with M14 melanoma, in the assay on RPMI-8226 leukemia and with SK-MEL-2 melanoma was more than 100 µM throughout. Moreover, the TGI in the assay with UO-31 renal was found to be 98 µM.
Take `CCOC(=O)/C(C#N)=C/c1[nH]c(C(=O)OCc2ccccc2)c(C)c1C`: the TGI in the assay with ACHN renal, in the assay with HCC-2998 colon, with K-562 leukemia, with M14 melanoma, in the assay with RPMI-8226 leukemia and in the assay on SK-MEL-2 melanoma was more than 100 µM in each case. In the assay with UO-31 renal, this compound displayed a TGI of more than 100 µM.
Regarding `Nc1cccc(S(=O)(=O)NCC(=O)O)c1`, the TGI in the assay with ACHN renal, with HCC-2998 colon, in the assay with HCT-116 colon, in the assay on K-562 leukemia, with M14 melanoma and in the assay on RPMI-8226 leukemia was more than 100 µM in each case. Also, the TGI in the assay on SK-MEL-2 melanoma and with UO-31 renal was more than 100 µM each time.
Consider `O=C(CC1(O)C(=O)Nc2ccccc21)c1ccncc1` (stereo not drawn), for which the TGI with A498 renal, in the assay on ACHN renal, with HCC-2998 colon, in the assay with HCT-116 colon, in the assay on K-562 leukemia and in the assay with M14 melanoma was more than 100 µM throughout. Further, the TGI with RPMI-8226 leukemia, in the assay on SK-MEL-2 melanoma and in the assay on UO-31 renal was more than 100 µM in each case.
Regarding `O=C(N/C(=C\c1cccc([N+](=O)[O-])c1)c1nc2ccc([N+](=O)[O-])cc2[nH]1)c1ccccc1`, the TGI in the assay with ACHN renal was more than 100 µM; with HCC-2998 colon it was more than 100 µM; with K-562 leukemia, more than 100 µM; in the assay with M14 melanoma it was more than 100 µM; in the assay on SK-MEL-2 melanoma it was 61 µM; in the assay with UO-31 renal, 58.9 µM.
Turning to `CC(=O)OCC1OC(NC(=S)N/N=C2\CC(c3ccccc3)Oc3ccccc32)C(OC(C)=O)C(OC(C)=O)C1OC(C)=O` (stereo not drawn), the TGI in the assay with A498 renal, in the assay on ACHN renal, with HCC-2998 colon, in the assay with HCT-116 colon, in the assay with K-562 leukemia and in the assay with M14 melanoma was more than 100 µM throughout. Moreover, the TGI in the assay on RPMI-8226 leukemia and in the assay on UO-31 renal was more than 100 µM each time.
With `CC1OC(OC2C(OC(=O)[C@]34CCC(C)(C)CC3C3=CCC5[C@@]6(C)C[C@H](O)[C@H](OC7OC(CO)C(O)C(O)C7N)[C@@](C)(C(=O)O)C6CC[C@@]5(C)C3(C)CC4)OCC(O)C2O)C(O)C(O)C1OC1OCC(O)C(O)C1O` (stereo partly drawn), the TGI with A498 renal, in the assay on ACHN renal, in the assay on HCC-2998 colon, in the assay with K-562 leukemia, in the assay with RPMI-8226 leukemia and in the assay on SK-MEL-2 melanoma was more than 100 µM in each case. Moreover, the TGI in the assay on UO-31 renal is more than 100 µM.
As to `CCC[CH2][Sn]1([CH2]CCC)[O]C(=O)CN=Cc2c(ccc3ccccc23)[O]1`, the GI50 in the assay with A498 renal is 1.55 µM; in the assay on ACHN renal, 0.319 µM; with HCC-2998 colon, 0.777 µM; with HCT-116 colon, 1.04 µM; with K-562 leukemia, 0.245 µM; in the assay with M14 melanoma, 0.367 µM. For the same compound, the GI50 in the assay on RPMI-8226 leukemia was 0.154 µM; in the assay with SK-MEL-2 melanoma, 0.251 µM; in the assay with UO-31 renal, 0.635 µM. Besides, the TGI is more than 100 µM in the assay on A498 renal; 1.05 µM with ACHN renal; 2.02 µM with HCC-2998 colon; 2.32 µM with HCT-116 colon; 1.09 µM in the assay with K-562 leukemia; 1.34 µM in the assay on M14 melanoma. Besides, the figures for the TGI in the assay on RPMI-8226 leukemia, in the assay with SK-MEL-2 melanoma and with UO-31 renal were 0.529 µM, 0.687 µM and 1.92 µM, respectively.
As to `C[C@@H]1OC(=O)N2CCCC(=C3SCCCS3)C12` (stereo partly drawn), the TGI in the assay on A498 renal, in the assay with ACHN renal, with HCT-116 colon, in the assay on K-562 leukemia, in the assay with M14 melanoma and in the assay with RPMI-8226 leukemia was more than 100 µM each time. Further, the TGI in the assay with SK-MEL-2 melanoma and with UO-31 renal was more than 100 µM each time.
For the compound `CC(C)(C)c1cc(CCC(=O)Nc2ccc(Cl)cc2)nc(NC#N)n1`, the TGI with ACHN renal, with HCT-116 colon, with K-562 leukemia, in the assay on M14 melanoma, in the assay on SK-MEL-2 melanoma and in the assay with UO-31 renal was more than 100 µM throughout.
As to `Nc1c(-c2ccc(Cl)cc2)[n+]([O-])c2ccccc2[n+]1[O-]`, the TGI in the assay on A498 renal, with ACHN renal, with HCC-2998 colon, with K-562 leukemia, with M14 melanoma and in the assay on RPMI-8226 leukemia was more than 100 µM throughout. The values for the TGI with SK-MEL-2 melanoma and with UO-31 renal were more than 100 µM and 55.3 µM, respectively.
Take `CCN(CC)C(c1ccc(N(C)C)cc1)C(c1ccc(N(C)C)cc1)N(CC)CC` (stereo not drawn): the TGI with A498 renal, with ACHN renal, in the assay with HCC-2998 colon, in the assay on HCT-116 colon, with K-562 leukemia and in the assay with M14 melanoma was more than 73 µM in each case. The TGI with RPMI-8226 leukemia and in the assay with SK-MEL-2 melanoma was more than 73 µM in each case.
